Data on ten molecules can be found in patent US9993492B2, “Lysophospholipids and lysophospholipid analogues against honeybee brood diseases” (University of Graz, priority 2013, dated 2018).

Data set [1] relates to Paenibacillus larvae. Briefly: Antimicrobial assay in BHI liquid medium, vegetative forms of Paenibacillus larvae (MIC). The format is cell-based. Particulars: for inhibitory / antibacterial activity against Pl (in words): in vitro; for MIC (ppm) / MIC: vegetative forms of Pl, liquid medium. On the procedure:
For the evaluation of certain fatty acids and phospholipids, overnight cultures of vegetative forms of Pl were used (for results see Table 1.1).
(§1) As test organisms, several different strains of Paenibacillus larvae were used.
(§2) Overnight cultures of the vegetative forms of bacteria were prepared in BHI (brain heart infusion) liquid medium.
From these overnight cultures, an inoculum of 50 μl is added to 1.0 ml of BHI liquid medium to perform the bacterial test in liquid medium. The compound 1-O-oleoyl-sn-glycero-3-phosphocholine (oleoyl-LPC) together with a positive control was then added at concentrations of 2, 5 and 10 ppm and the test tubes were incubated for 24 h at 34.5° C. Then, the extinction of the solution was measured photometrically.

Data set [2] relates to Melissococcus plutonius. Briefly: Antimicrobial assay in liquid Basal Medium against Melissococcus plutonius (MIC). The format is cell-based. As to conditions: for MIC (ppm) / MIC: M. pl. in BM liquid medium, OE at 600 nm after 5 days; for inhibitory / antibacterial activity against M. pl. (in words): in vitro. As for the experimental part: M. pl. was cultured in liquid Basal Medium (BM) for 4 days at 35° C. and from here serial dilutions were carried out to estimate CFU/ml by plating onto BM agar plates. 5 days later CFU were count and concentration was estimated to be 3.46*10^6 CFU/ml. For the antimicrobial assay, an inoculum of 50 μl of the liquid culture is added to 1 mL of BM liquid medium. A set of different substances were tested in different concentrations (2, 5 and 10 ppm) in order to find out their inhibitory effect against M. pl growth. For substances tested, concentration applied and results see table 1.2. Three replicates per substance were included in the experiment. 5 days after the experiment was started OE (optical extinction) was measured at 600 nm.

Data set [3] deals with honeybee larvae. Format: in vivo. Particulars: for Ndead larvae total: days 1-7; for toxicity to honeybee larvae (footnote b): in vivo. On the procedure: First instar larvae were transferred into plastic queen cups and fed the following diets: On the first day 10 μL of diet containing 6% glucose, 6% fructose, 1% yeast extract and 50% royal jelly were fed. Test substances (1-O-oleoyl-sn-glycero-3-phosphocholine (oleoyl-LPC), stearic acid, lysophosphatidylinositol and linoleic acid) were added to the first diet in amounts of 0.5 to 10 μg/larvae. For infection with spores of Paenibacillus larvae, larvae were grafted into 5 μL of diet containing test substances and subsequently 5 μL of diet with about 50 added Pl spores were given. Larvae were not fed on the second day to assure the consumption of the given diet. On the third day 20 μL of diet containing 7.5% glucose, 7.5% fructose, 1.5% yeast extract and 50% royal jelly were fed. Amounts of 30, 40 and 60 μL of diet composed of 9% glucose, 9% fructose, 2% yeast extract and 50% royal jelly were fed on the 4th, 5th and 6th day (method modified after Aupinel et al. [Aupinel et al. 2005. Bull Insectol 58:107-111]. Larvae were incubated at 34.5° C. and 95% relative humidity which was reduced to 80% on day 7. The mortality was checked daily for the first 7 days and when individuals emerged from queen cups at day 18 after the transfer into cups. To reduce the time for sporulation of Pl in the lab for security reasons, infection tests with Pl spores were stopped at day 7 with some experiments extend to day 12.
Larvae were fed according to a slightly modified rearing method of Aupinel et al., (2005). Larvae were fed for 6 days with different amounts of diets which always contained 50% of an aqueous solution (A, B, C) and 50% royal jelly (w/w). The solutions consisted of yeast extract (A=2%, B=3%, C=4%), glucose and fructose (A=12%, B=15%, C=18% each). 50 g portions of royal jelly (purchased from the Styrian school of beekeepers) were freeze stored at −20° C. Once a day all components of the needed diet were mixed freshly, warmed and fed to the larvae with a micro-pipette. On day 1 and 2 each larva was fed with 10 μL of diet A, on day three with 20 μL of diet B, on day four (30 μL), five (40 μL) and six (50 μL) with diet C. This way, each larva was supported with a total amount of 160 μL of food. The test compounds (see Table 4) were added each at the respective concentration on day 1, i.e. stearic acid (10 μg/larva), lysophosphatidylinositol (5 μg/larva), linoleic acid (12 μg/larva) and oleyol-LPC (10 μg/larva). Each larva was checked for its state of health under the binocular before feeding. A larva was defined healthy when movements of spiracles could be observed and it was shiny and plump. Cups with dead larvae were removed from the plate to prevent infections. To avoid microbial contamination, feeding took place under a laminar flow. Larvae were incubated at 34.5° C. and 90% RH. The mortality rates of the larvae are given below in table 4.1.

For data set [4], the system named is spores of Paenibacillus larvae. Put plainly: Spore assay in BHI liquid medium with plating for CFU. Format: cell-based. As to conditions: lowest investigated dose (5 ppm); 114.6±28.4 spores per vial; 4 and 6 days. On the procedure: A stock solution containing spores at a known concentration is used to inoculate c. 100 spores/mL medium. This assay is carried out in 20 mL cultivation tubes containing 1.0 mL of BHI (brain heart infusion) liquid medium. To this medium containing c. […] spores, test compounds are added at different concentrations (e.g., 2, 5 and 10 ppm), together with positive control (penicillin G at 5 ppm) and blank control.
To verify inoculation with c. 100 spores/mL, tubes containing BHI+spores are plated out immediately on agar plates to assess the number of colony forming units (CFU) after 6 days of incubation at 34.5° C.
For the control of viability of the spores, the turbidity (due to germination of spores and formation of vegetative forms) of tubes containing BHI+spores is evaluated on day 4.
For the test probes, bacterial growth is evaluated on day 4 and 6. For those tubes which are negative for bacterial growth, the whole medium (c. 1 mL) is plated onto agar plates and evaluated for CFUs after 2 and 6 days of incubation. CFUs visible after two days result from vegetative forms, while CFUs appearing after […] stem from spores.
The results of these tests allow identifying whether the tested compounds have an effect on spore germination in liquid medium and the viability of the spores as assessed by their germination on agar plates. […]

Data set [5] relates to Paenibacillus larvae (Eric II test strain). Briefly: Inhibition zone test on Columbia agar. The format is cell-based. As to conditions: amount 30 μg; 24 h, 34.5° C. On the procedure: as §1, §2
For the inhibition zone test, 500 μL of overnight culture were added to 15-20 mL of Columbia agar, mixed and poured onto a petri dish. After the agar solidified, either punched wholes are filled with different amounts of test compounds or test compounds are pipetted on paper discs (5 mm Ø). The plate is then incubated for 24 h (34.5° C.) and zones of inhibition are measured and given in mm. Lactic acid and penicillin G were used as positive controls.
E II—Eric II (test strain of Pl)

Setting [6] is: LPI 5 μg/larva added on day 1, Nlarvae 96.
Where [7] appears, read: Paenibacillus larvae, 24 h, read-out: MIC (ppm).
Setting [8] is: Paenibacillus larvae, read-out: MIC.
The mark [9] stands for this setting: Melissococcus plutonius, 120 h, read-out: MIC.
Setting [10] is: Melissococcus plutonius, 120 h, read-out: MIC (ppm).
Where [11] appears, read: linoleic acid 12 μg/larva added on day 1, Nlarvae 48.
[12] abbreviates: stearic acid 10 μg/larva added on day 1, Nlarvae 96.

Like-named read-outs stand apart in the source and are kept apart here.

By MIC is commonly meant the lowest concentration found to suppress growth. With L-α-lysophosphatidylinositol, in data set [1], the “inhibitory / antibacterial activity against Pl (in words)” value is “did not show significant inhibitory activity” and the “MIC (ppm)” value is reported as above 50 ppm. For the same molecule, the MIC in data set [1] (read-out: MIC) was above 80 µM. In data set [2], the “MIC (ppm)” value is on record as above 10 ppm and the “inhibitory / antibacterial activity against M. pl. (in words)” value is on record as “did not show significant inhibitory activity”. The MIC in data set [2] (read-out: MIC) is above 15 µM. For the same molecule, in data set [3] (setting [6]), the “Ndead larvae day 1” value worked out at 0, the “Ndead larvae day 2” value was found to be 0, the “Ndead larvae day 3” value is recorded as 0 and the “Ndead larvae day 4” value is 0. In addition, in data set [3] (setting [6]), the “Ndead larvae day 5” value is listed as 1, the “Ndead larvae day 6” value is reported as 1, the “Ndead larvae day 7” value was 2 and the Ndead larvae total is reported as 4.
As to `CCCCCCCCCCCCCCCCCC(=O)OC[C@@H](O)COP(=O)([O-])OCC[N+](C)(C)C` [1-O-stearoyl-sn-glycero-3-phosphocholine], the MIC in data set [1] (setting [7]) is 5 µg/mL; in data set [1] (setting [8]) it was above 9.5 µM; in data set [2] (setting [9]) it was above 5.7 µM; in data set [2] (setting [10]) it was 3 µg/mL. In data set [1], the “inhibitory / antibacterial activity against Pl (in words)” value was “good in vitro Pl inhibitory activity”.
For the molecule `CCCCCCCCCCCCCCCCOP(=O)([O-])OCC[N+](C)(C)C` [miltefosine, hexadecylphosphocholine], the MIC was 2 to 5 µg/mL in data set [1] (setting [7]), 7.4 µM in data set [1] (setting [8]), 4.9 µM in data set [2] (setting [9]) and 2 µg/mL in data set [2] (setting [10]). In data set [1], the “inhibitory / antibacterial activity against Pl (in words)” value was “good in vitro Pl and M. pl. inhibitory activity”. Also, in data set [2], the “inhibitory / antibacterial activity against M. pl. (in words)” value was “good in vitro Pl and M. pl. inhibitory activity”. For the same molecule, the “killing of vegetative forms upon germination of spores” value in data set [4] is given as “all vegetative forms are killed”.
For the molecule `CCCCCCCCCCCCCCCC(=O)O` [palmitic acid], the MIC in data set [1] (setting [7]) is above 20 µg/mL; in data set [1] (setting [8]), above 78 µM; in data set [2] (setting [9]), above 40 µM; in data set [2] (setting [10]), above 15 µg/mL.
For the molecule lysophosphatidylcholine, the “MIC (ppm)” value in data set [1] and in data set [2] was 2-5 ppm in each case. Further, the “larval mortality compared with control group” value in data set [3] (single dose fed on day one, up to 1-2% of fresh body weight of larvae younger than one day, assessed on day 7) is recorded as “no higher mortality than found in the control group”.
Regarding `CCCCC/C=C\C/C=C\CCCCCCCC(=O)O` [linoleic acid], in data set [1] (setting [7]), the minimum inhibitory concentration (MIC) was determined as 0.5 µg/mL. Further, the MIC in data set [1] (setting [8]) stood at 1.8 µM. The MIC in data set [2] (setting [9]) amounted to 3.6 µM. Besides, in data set [2] (setting [10]), the MIC turned out to be 1 µg/mL. Besides, the “toxicity to honeybee larvae (footnote b)” value in data set [3] is on record as “^btoxic to honeybee larvae”. Moreover, in data set [3] (setting [11]), the “Ndead larvae day 1” value was found to be 0, the “Ndead larvae day 2” value is given as 18, the “Ndead larvae day 3” value worked out at 2 and the “Ndead larvae day 4” value stood at 3. For the same molecule, in data set [3] (setting [11]), the “Ndead larvae day 5” value is 1, the “Ndead larvae day 6” value is 1, the “Ndead larvae day 7” value was determined as 1 and the Ndead larvae total is on record as 26.
`CCCCCCCCCCCCCCCCCC(=O)O` [stearic acid]: in data set [1] (setting [7]), the minimal inhibitory concentration (MIC) was above 20 µg/mL. Moreover, in data set [1] (setting [8]), the MIC is above 70 µM. Besides, the MIC in data set [2] (setting [9]) is above 35 µM. The minimal inhibitory concentration (MIC) in data set [2] (setting [10]) is above 10 µg/mL. For the same molecule, in data set [3] (setting [12]), the “Ndead larvae day 1” value is on record as 0, the “Ndead larvae day 2” value was found to be 0, the “Ndead larvae day 3” value is 1 and the “Ndead larvae day 4” value is reported as 0. Moreover, in data set [3] (setting [12]), the “Ndead larvae day 5” value is 1, the “Ndead larvae day 6” value is 3, the “Ndead larvae day 7” value is on record as 1 and the Ndead larvae total turned out to be 6.
Take `CC(O)C(=O)O` (stereo not shown) [LA (C+), lactic acid]: the “Inhibition zone (mm)” value in data set [5] amounted to 5 mm.
`CCCCCCCC/C=C\CCCCCCCC(=O)O` [oleic acid]: the minimal inhibitory concentration (MIC) in data set [1] (setting [7]) was 1 µg/mL; in data set [1] (setting [8]) it was 3.5 µM; in data set [2] (setting [9]), 3.5 µM; in data set [2] (setting [10]), 1 µg/mL. The “toxicity to honeybee larvae (footnote b)” value in data set [3] is recorded as “^btoxic to honeybee larvae”.
Take `CCCCCCCCCCCCCCCCCCOP(=O)([O-])OC1CC[N+](C)(C)CC1` [perifosine, 1,1-dimethylpiperidinium-4-yl octadecyl phosphate]: the minimal inhibitory concentration (MIC) in data set [1] (setting [7]) was 2 µg/mL; in data set [1] (setting [8]), 4.3 µM; in data set [2] (setting [9]), 4.3 µM; in data set [2] (setting [10]), 2 µg/mL. Also, the “inhibitory / antibacterial activity against Pl (in words)” value in data set [1] is “good in vitro Pl and M. pl. inhibitory activity”. Further, the “inhibitory / antibacterial activity against M. pl. (in words)” value in data set [2] was “good in vitro Pl and M. pl. inhibitory activity”.
